Measured values taken from ChEMBL document CHEMBL4706759, “Novel Substituted Pyrazines as Splicing Modulators for Modulating Splicing of mRNA and Uses Thereof for Treating Diseases” (ACS Med Chem Lett, 2021).

target: SMN2 pre-mRNA; test: Modulation of SMN2 mRNA splicing in spinal muscular atrophy patient fibroblasts assessed as change in SMN protein expression measured after 48 hrs by MSD analysis; design: species or system Homo sapiens; settings: fibroblast

| SMILES | EC50 |
| --- | --- |
| CN(c1cnc(-c2ccc(-c3cn[nH]c3)cc2O)cn1)[C@H]1C[C@@H]2CCC[C@@H](N2)[C@H]1F | 0.01 nM |
| CN(c1cnc(-c2cc(F)c(-c3cn[nH]c3)cc2O)cn1)[C@H]1C[C@@H]2CC[C@@H](N2)[C@H]1F | 0.01 nM |
| CN(c1cnc(-c2ccc(-c3ccn(C)c(=O)c3)cc2O)cn1)[C@@H]1C[C@H]2CCC[C@H](N2)[C@@H]1F | 0.01 nM |
| CN(c1cnc(-c2ccc(-c3cn[nH]c3)cc2O)cn1)[C@H]1C[C@]2(C)CCC[C@@](C)(N2)[C@H]1F | 0.01 nM |
| CN(c1cnc(-c2ccc(-c3cn[nH]c3)cc2O)cn1)[C@H]1C[C@@H]2CC[C@@](C)(N2)[C@H]1F | 0.01 nM |
| CN(c1cnc(-c2ccc(-c3cn[nH]c3)cc2O)cn1)[C@H]1C[C@@H]2CC[C@@H](N2)[C@H]1F | 0.01 nM |

target: SMN2 pre-mRNA; test: Modulation of SMN2 mRNA splicing in spinal muscular atrophy patient fibroblasts measured after 24 hrs by TaqMan qPCR analysis; assay type: tissue-based, Homo sapiens; settings: fibroblast

| SMILES | EC50 |
| --- | --- |
| CN(c1cnc(-c2ccc(-c3cn[nH]c3)cc2O)cn1)[C@H]1C[C@@H]2CCC[C@@H](N2)[C@H]1F | 16 nM |
| CN(c1cnc(-c2cc(F)c(-c3cn[nH]c3)cc2O)cn1)[C@H]1C[C@@H]2CC[C@@H](N2)[C@H]1F | 16 nM |
| CN(c1cnc(-c2ccc(-c3ccn(C)c(=O)c3)cc2O)cn1)[C@@H]1C[C@H]2CCC[C@H](N2)[C@@H]1F | 51 nM |
| CN(c1cnc(-c2ccc(-c3cn[nH]c3)cc2O)cn1)[C@H]1C[C@]2(C)CCC[C@@](C)(N2)[C@H]1F | 16 nM |
| CN(c1cnc(-c2ccc(-c3cn[nH]c3)cc2O)cn1)[C@H]1C[C@@H]2CC[C@@](C)(N2)[C@H]1F | 16 nM |
| CN(c1cnc(-c2ccc(-c3cn[nH]c3)cc2O)cn1)[C@H]1C[C@@H]2CC[C@@H](N2)[C@H]1F | 16 nM |
